Measured values taken from the kinase profiling compilation of Christmann-Franck et al. (2016).

How the values were obtained:
Assay in all cases: radiometric filter-binding kinase assay, Kinase HotSpot
Conditions in all cases: compound 0.5 µM; ATP 10 µM
SLK (human) = SLK (human) (UniProt Q9H2G2)
NTRK3 (human) = NTRK3 (human) (UniProt Q16288)
SGK2 (human) = SGK2 (human) (UniProt Q9HBY8)
MAPKAPK2 (human) = MAPKAPK2 (human) (UniProt P49137)
HIPK4 (human) = HIPK4 (human) (UniProt Q8NE63)
STK10 (human) = STK10 (human) (UniProt O94804)
GRK7 (human) = GRK7 (human) (UniProt Q8WTQ7)
FGR (human) = FGR (human) (UniProt P09769)
MAP3K2 (human) = MAP3K2 (human) (UniProt Q9Y2U5)
CDK9 CCNT1 (human) = CDK9 CCNT1 (human) (UniProt P50750+O60563)
NEK1 (human) = NEK1 (human) (UniProt Q96PY6)
CDK5 CDK5R1 p35 (human) = CDK5 CDK5R1 p35 (human) (UniProt Q00535+Q15078)
PLK3 (human) = PLK3 (human) (UniProt Q9H4B4)
FGFR4 (human) = FGFR4 (human) (UniProt P22455)
VRK1 (human) = VRK1 (human) (UniProt Q99986)
FLT1 (human) = FLT1 (human) (UniProt P17948)
MAP4K5 (human) = MAP4K5 (human) (UniProt Q9Y4K4)
IRAK4 (human) = IRAK4 (human) (UniProt Q9NWZ3)
STK4 (human) = STK4 (human) (UniProt Q13043)
HIPK1 (human) = HIPK1 (human) (UniProt Q86Z02)
MAP3K11 (human) = MAP3K11 (human) (UniProt Q16584)
RAF1 (human) = RAF1 (human) (UniProt P04049)
NTRK1 (human) = NTRK1 (human) (UniProt P04629)
SGK3 (human) = SGK3 (human) (UniProt Q96BR1)
PNCK (human) = PNCK (human) (UniProt Q6P2M8)
HIPK3 (human) = HIPK3 (human) (UniProt Q9H422)
PRKCH (human) = PRKCH (human) (UniProt P24723)
TAOK3 (human) = TAOK3 (human) (UniProt Q9H2K8)
TEK (human) = TEK (human) (UniProt Q02763)
SYK (human) = SYK (human) (UniProt P43405)
MAP3K3 (human) = MAP3K3 (human) (UniProt Q99759)
TNK2 (human) = TNK2 (human) (UniProt Q07912)
CDK9 CCNK (human) = CDK9 CCNK (human) (UniProt O75909+P50750)
WEE1 (human) = WEE1 (human) (UniProt P30291)
RPS6KB1 (human) = RPS6KB1 (human) (UniProt P23443)
AURKC (human) = AURKC (human) (UniProt Q9UQB9)
MAP3K8 (human) = MAP3K8 (human) (UniProt P41279)
CLK1 (human) = CLK1 (human) (UniProt P49759)
CAMK1D (human) = CAMK1D (human) (UniProt Q8IU85)
PAK2 (human) = PAK2 (human) (UniProt Q13177)
CSNK1E (human) = CSNK1E (human) (UniProt P49674)
AURKA (human) = AURKA (human) (UniProt O14965)

Sequence of RPS6KB1 (human) (P23443 whole entry, looked up): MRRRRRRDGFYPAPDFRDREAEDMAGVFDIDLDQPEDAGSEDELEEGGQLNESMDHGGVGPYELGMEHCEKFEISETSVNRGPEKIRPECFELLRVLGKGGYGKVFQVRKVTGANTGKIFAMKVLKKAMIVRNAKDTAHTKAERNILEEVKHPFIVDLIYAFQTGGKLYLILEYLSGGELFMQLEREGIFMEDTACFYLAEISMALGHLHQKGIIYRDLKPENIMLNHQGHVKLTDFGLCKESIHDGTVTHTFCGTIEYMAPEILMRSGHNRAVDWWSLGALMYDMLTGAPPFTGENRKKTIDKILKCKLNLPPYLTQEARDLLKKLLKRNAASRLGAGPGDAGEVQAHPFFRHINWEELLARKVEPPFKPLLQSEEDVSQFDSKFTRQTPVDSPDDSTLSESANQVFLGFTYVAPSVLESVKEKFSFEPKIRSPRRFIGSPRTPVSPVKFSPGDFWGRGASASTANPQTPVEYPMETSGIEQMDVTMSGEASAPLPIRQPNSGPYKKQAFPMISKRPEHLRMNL
Sequence of PLK3 (human) (Q9H4B4 whole entry, looked up): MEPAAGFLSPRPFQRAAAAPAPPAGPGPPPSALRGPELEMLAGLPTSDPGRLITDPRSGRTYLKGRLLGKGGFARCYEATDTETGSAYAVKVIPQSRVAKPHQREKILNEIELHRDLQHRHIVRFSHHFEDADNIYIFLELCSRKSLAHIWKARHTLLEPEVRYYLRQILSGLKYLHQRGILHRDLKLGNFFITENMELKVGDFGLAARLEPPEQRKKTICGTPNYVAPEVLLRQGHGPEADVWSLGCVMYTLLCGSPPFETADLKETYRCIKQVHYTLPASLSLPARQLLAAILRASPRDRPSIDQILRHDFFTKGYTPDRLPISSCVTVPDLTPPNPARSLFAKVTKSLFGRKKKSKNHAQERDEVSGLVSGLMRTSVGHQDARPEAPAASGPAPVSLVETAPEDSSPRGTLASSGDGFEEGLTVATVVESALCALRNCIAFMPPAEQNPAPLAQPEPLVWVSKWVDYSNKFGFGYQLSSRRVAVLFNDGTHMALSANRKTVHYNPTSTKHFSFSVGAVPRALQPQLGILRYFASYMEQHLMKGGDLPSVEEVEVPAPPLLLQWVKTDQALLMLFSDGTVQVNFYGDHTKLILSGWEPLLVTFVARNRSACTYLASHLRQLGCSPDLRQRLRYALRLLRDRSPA
Sequence of AURKC (human) (Q9UQB9 whole entry, looked up): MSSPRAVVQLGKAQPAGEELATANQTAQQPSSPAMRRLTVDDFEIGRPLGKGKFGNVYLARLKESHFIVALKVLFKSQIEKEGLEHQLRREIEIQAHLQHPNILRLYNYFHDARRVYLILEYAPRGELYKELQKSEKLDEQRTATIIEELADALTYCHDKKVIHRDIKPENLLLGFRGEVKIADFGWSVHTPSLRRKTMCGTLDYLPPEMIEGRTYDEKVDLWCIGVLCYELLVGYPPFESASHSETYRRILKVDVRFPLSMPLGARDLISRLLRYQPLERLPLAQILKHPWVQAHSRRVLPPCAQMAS
Sequence of NTRK3 (human) (Q16288 whole entry, looked up): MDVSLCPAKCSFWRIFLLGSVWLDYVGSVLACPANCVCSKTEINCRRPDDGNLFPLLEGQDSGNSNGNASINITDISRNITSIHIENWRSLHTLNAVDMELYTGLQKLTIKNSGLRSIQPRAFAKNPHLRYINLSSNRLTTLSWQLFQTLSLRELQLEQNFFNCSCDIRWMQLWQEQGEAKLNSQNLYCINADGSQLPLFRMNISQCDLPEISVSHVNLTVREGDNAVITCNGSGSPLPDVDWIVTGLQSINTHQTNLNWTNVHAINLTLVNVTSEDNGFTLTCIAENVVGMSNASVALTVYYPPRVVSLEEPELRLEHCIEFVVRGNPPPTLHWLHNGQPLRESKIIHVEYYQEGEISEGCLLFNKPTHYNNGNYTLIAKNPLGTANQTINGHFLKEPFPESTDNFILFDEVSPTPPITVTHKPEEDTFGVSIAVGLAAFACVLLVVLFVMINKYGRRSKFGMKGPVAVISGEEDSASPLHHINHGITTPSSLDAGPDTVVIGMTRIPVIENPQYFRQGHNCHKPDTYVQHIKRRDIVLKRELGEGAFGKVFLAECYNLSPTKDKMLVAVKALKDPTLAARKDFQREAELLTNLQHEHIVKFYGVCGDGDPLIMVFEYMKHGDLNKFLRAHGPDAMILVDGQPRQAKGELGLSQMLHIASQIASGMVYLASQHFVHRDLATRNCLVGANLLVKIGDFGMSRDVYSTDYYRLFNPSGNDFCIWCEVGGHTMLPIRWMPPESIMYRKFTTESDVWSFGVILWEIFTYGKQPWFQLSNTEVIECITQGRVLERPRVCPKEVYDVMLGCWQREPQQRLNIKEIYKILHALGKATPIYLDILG
Sequence of IRAK4 (human) (Q9NWZ3 whole entry, looked up): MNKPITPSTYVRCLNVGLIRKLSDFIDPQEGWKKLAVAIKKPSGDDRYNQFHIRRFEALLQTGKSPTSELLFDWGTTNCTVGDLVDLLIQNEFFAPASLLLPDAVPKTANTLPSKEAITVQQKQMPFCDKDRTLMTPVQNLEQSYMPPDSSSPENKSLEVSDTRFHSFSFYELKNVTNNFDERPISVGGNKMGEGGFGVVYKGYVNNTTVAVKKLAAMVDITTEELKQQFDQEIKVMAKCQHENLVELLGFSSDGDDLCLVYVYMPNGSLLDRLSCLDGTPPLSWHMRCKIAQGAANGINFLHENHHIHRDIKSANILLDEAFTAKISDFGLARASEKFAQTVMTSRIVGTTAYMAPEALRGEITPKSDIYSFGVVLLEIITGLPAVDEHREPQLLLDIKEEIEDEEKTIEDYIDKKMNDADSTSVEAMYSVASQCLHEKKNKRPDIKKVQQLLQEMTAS
Sequence of FGFR4 (human) (P22455 whole entry, looked up): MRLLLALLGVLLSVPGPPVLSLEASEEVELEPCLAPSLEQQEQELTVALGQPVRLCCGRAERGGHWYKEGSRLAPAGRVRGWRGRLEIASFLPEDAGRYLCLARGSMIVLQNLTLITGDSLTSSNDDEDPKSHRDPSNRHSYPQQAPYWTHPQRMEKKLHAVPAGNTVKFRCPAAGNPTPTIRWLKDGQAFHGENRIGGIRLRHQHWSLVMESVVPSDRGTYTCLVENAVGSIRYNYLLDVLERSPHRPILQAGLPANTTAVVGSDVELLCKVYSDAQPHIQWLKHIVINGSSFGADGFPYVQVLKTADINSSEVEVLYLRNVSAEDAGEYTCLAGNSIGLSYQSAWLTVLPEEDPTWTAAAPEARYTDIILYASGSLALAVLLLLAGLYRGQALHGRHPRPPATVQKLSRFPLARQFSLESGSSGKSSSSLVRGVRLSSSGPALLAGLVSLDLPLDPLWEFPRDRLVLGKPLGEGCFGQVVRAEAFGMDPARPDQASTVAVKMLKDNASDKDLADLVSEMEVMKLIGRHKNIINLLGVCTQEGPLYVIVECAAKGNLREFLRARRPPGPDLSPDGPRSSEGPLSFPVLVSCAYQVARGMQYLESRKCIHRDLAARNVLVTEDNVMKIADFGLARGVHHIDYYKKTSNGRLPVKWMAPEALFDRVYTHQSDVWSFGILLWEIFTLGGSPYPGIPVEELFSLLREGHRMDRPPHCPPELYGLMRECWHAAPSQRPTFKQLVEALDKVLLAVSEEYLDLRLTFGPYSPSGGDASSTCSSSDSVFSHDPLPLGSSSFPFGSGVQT
Sequence of MAP4K5 (human) (Q9Y4K4 whole entry, looked up): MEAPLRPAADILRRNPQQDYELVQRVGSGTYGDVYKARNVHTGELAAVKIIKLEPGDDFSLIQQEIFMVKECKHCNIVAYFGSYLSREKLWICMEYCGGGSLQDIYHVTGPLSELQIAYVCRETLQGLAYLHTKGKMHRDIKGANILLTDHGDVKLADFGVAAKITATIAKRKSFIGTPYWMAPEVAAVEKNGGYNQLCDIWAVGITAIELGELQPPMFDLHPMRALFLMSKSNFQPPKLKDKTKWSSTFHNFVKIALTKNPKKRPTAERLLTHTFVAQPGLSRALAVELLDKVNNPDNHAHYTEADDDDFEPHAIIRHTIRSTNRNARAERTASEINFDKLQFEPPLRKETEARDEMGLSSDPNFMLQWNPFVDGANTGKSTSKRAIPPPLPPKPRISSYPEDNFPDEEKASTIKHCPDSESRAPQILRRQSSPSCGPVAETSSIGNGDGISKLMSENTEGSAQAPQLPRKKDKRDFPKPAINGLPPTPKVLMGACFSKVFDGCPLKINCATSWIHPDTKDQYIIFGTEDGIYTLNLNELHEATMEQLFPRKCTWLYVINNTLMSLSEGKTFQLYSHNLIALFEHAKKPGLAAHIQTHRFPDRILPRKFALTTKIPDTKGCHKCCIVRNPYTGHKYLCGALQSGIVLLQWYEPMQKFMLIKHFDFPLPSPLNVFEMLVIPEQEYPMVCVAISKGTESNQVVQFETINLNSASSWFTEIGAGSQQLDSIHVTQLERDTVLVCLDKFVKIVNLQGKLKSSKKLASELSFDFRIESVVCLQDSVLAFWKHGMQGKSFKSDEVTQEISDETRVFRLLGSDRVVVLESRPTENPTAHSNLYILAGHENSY
Sequence of STK4 (human) (Q13043 whole entry, looked up): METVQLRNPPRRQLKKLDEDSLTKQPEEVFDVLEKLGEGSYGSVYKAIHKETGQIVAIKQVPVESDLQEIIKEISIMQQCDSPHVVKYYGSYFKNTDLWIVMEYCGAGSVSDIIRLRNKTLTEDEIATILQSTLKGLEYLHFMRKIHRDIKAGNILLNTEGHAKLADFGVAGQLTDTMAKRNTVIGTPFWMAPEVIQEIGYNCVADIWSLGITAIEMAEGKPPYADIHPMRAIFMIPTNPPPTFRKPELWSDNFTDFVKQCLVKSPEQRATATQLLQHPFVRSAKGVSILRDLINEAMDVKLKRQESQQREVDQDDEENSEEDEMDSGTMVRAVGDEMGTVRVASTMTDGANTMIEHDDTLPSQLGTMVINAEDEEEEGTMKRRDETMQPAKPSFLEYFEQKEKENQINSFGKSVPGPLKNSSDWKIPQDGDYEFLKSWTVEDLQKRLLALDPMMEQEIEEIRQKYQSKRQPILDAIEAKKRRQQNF

## O=C(Nc1ccc(Cl)cc1)c1ccccc1NCc1ccncc1
SLK (human)
  residual activity: 86.6%
NTRK3 (human)
  residual activity: 97%
SGK2 (human)
  residual activity: 103%
MAPKAPK2 (human)
  residual activity: 97.6%
HIPK4 (human)
  residual activity: 103%
STK10 (human)
  residual activity: 81.8%
GRK7 (human)
  residual activity: 96.2%
FGR (human)
  residual activity: 83.8%
MAP3K2 (human)
  residual activity: 92.8%
CDK9 CCNT1 (human)
  residual activity: 81.9%
NEK1 (human)
  residual activity: 96%
CDK5 CDK5R1 p35 (human)
  residual activity: 90.4%
PLK3 (human)
  residual activity: 98.5%
FGFR4 (human)
  residual activity: 84.1%
VRK1 (human)
  residual activity: 104%
FLT1 (human)
  residual activity: 24.8%
MAP4K5 (human)
  residual activity: 95.8%
IRAK4 (human)
  residual activity: 104%
STK4 (human)
  residual activity: 98.7%
HIPK1 (human)
  residual activity: 92.7%
MAP3K11 (human)
  residual activity: 89%
RAF1 (human)
  residual activity: 62.6%
NTRK1 (human)
  residual activity: 95.5%
SGK3 (human)
  residual activity: 92.5%
PNCK (human)
  residual activity: 94.8%
HIPK3 (human)
  residual activity: 98.7%
PRKCH (human)
  residual activity: 96.2%
TAOK3 (human)
  residual activity: 94.1%
TEK (human)
  residual activity: 92.4%
SYK (human)
  residual activity: 93.6%
MAP3K3 (human)
  residual activity: 96.2%
TNK2 (human)
  residual activity: 99.3%
CDK9 CCNK (human)
  residual activity: 95.5%
WEE1 (human)
  residual activity: 90.1%
RPS6KB1 (human)
  residual activity: 92.5%
AURKC (human)
  residual activity: 93.4%
MAP3K8 (human)
  residual activity: 105%
CLK1 (human)
  residual activity: 102%
CAMK1D (human)
  residual activity: 95.3%
PAK2 (human)
  residual activity: 91%
CSNK1E (human)
  residual activity: 92.5%
AURKA (human)
  residual activity: 84.4%

## Cc1ccc(NC(=O)c2ccc(CN3CCN(C)CC3)cc2)cc1Nc1nc(-c2cccnc2)cs1
SLK (human)
  residual activity: 92.4%
NTRK3 (human)
  residual activity: 94.1%
SGK2 (human)
  residual activity: 106%
MAPKAPK2 (human)
  residual activity: 102%
HIPK4 (human)
  residual activity: 101%
STK10 (human)
  residual activity: 93.8%
GRK7 (human)
  residual activity: 104%
FGR (human)
  residual activity: 43.6%
MAP3K2 (human)
  residual activity: 102%
CDK9 CCNT1 (human)
  residual activity: 99.2%
NEK1 (human)
  residual activity: 116%
CDK5 CDK5R1 p35 (human)
  residual activity: 100%
PLK3 (human)
  residual activity: 101%
FGFR4 (human)
  residual activity: 89.8%
VRK1 (human)
  residual activity: 97.4%
FLT1 (human)
  residual activity: 96.4%
MAP4K5 (human)
  residual activity: 97%
IRAK4 (human)
  residual activity: 97.4%
STK4 (human)
  residual activity: 101%
HIPK1 (human)
  residual activity: 97.4%
MAP3K11 (human)
  residual activity: 101%
RAF1 (human)
  residual activity: 77.5%
NTRK1 (human)
  residual activity: 97.1%
SGK3 (human)
  residual activity: 95.6%
PNCK (human)
  residual activity: 97%
HIPK3 (human)
  residual activity: 101%
PRKCH (human)
  residual activity: 102%
TAOK3 (human)
  residual activity: 95.4%
TEK (human)
  residual activity: 97.2%
SYK (human)
  residual activity: 101%
MAP3K3 (human)
  residual activity: 108%
TNK2 (human)
  residual activity: 95.7%
CDK9 CCNK (human)
  residual activity: 109%
WEE1 (human)
  residual activity: 97%
RPS6KB1 (human)
  residual activity: 104%
AURKC (human)
  residual activity: 112%
MAP3K8 (human)
  residual activity: 91.5%
CLK1 (human)
  residual activity: 101%
CAMK1D (human)
  residual activity: 110%
PAK2 (human)
  residual activity: 111%
CSNK1E (human)
  residual activity: 98.8%
AURKA (human)
  residual activity: 105%
